One data set has as its system Fusarium solani. The experiment in a line: Microdilution broth assay. The class given is cell-based. Details: MIC against F. solani in PDB (n): unit not given beside the values. The method, then:
(§1) Microdilution broth and agar assays were used to assess the antifungal activity of the cyclic decapeptides in liquid media and on solid (gel) media, respectively.
(§2) The antibacterial activity of the tyrocidines and gramicidin S against all the bacteria tested was determined by the methods described by Du Toit E A and Rautenbach M (2000) J. Microbiol. Methods, 42, 159-165. The antifungal activity of the tyrocidines against all the […] tested was determined by the methods described by Troskie A M, Vlok N M and Rautenbach M (2012) J. Microbiol. Methods, 91, 551-558.
Background: Broth dilution looks for growth in wells or tubes with falling amounts of substance.

The subject of data set [1] is Aspergillus fumigatus ATCC 204305. The experiment in a line: Microdilution broth assay. The class given is cell-based. As to the method: as §1, §2
Another data set relates to Fusarium oxysporum. The experiment in a line: Microdilution broth assay. The data set is classed as cell-based. The method, then:
as §1, §2

A further data set deals with Fusarium verticilliodes. The experiment in a line: Microdilution broth assay. The class given is cell-based. As to the method:
as §1, §2

The test system of data set [2] is Penicillium digitatum (citrus isolate). The experiment in a line: Microdilution broth assay. The class given is cell-based. As to the method: as §1, §2
Data set [3] deals with Penicillium expansum (peach isolate). The experiment in a line: Microdilution broth assay. The class given is cell-based. The method, then: as §1, §2
Data set [4] concerns Penicillium glabrum (wood isolate). The experiment in a line: Microdilution broth assay. The data set is classed as cell-based. The method, then:
as §1, §2

In a further data set the test system is Botrytis cinerea. The experiment in a line: Microdilution broth assay. The data set is classed as cell-based. More on the design: MIC + SEM / MIC against B. cinerea in PDB (n): unit not given beside the values. As to the method:
as §1, §2

The subject of data set [5] is Cylindrocarpon liriodendri. The experiment in a line: Agar assay. The data set is classed as cell-based. More on the design: unit not given beside the values. As to the method: as §1, §2
A further data set deals with Escherichia coli HB101. The experiment in a line: Agar assay. The data set is classed as cell-based. More on the design: unit not given beside the values. As to the method:
as §1, §2

Data set [6] relates to Micrococcus luteus NCTG 8340. The experiment in a line: Agar assay. The data set is classed as cell-based. More on the design: unit not given beside the values. The method, then: as §1, §2
The test system of a further data set is Phomopsis viticola. The experiment in a line: Agar assay. The data set is classed as cell-based. More on the design: unit not given beside the values. The method, then: as §1, §2
Data set [7] has as its system Talaromyces ramulosus (peach isolate). The experiment in a line: Agar assay. The class given is cell-based. More on the design: unit not given beside the values. As to the method:
as §1, §2

Data set [8] concerns fungal pathogens. The experiment in a line: Sterilization of field-gathered grapevine material for plant cultures. To be noted: in the washing step or in the growth media; without a major detrimental effect to the plant material; results not shown. The class given is in vivo. As to the method: (§3) The Trc mix and GS were also tested for use in the sterilization of field-gathered grapevine material for use in plant cultures.

For data set [9], the system named is fungal pathogens. The experiment in a line: Plant culture assay, fungal pathogens in growth media. The class given is in vivo. To be noted: without a major detrimental effect to the plant material. As to the method: as §3
(§4) Grapevine tissue culture plants were transferred to MS medium containing GS or Trc mix at a concentration of 15 μg/mL and incubated at 25° C. with a 16 h/8 h day night cycle. The growth and development of the grapevine plantlets were monitored and compared to the control set of plants which were maintained on MS-medium without GS or Trc mix.

Data set [10] relates to African daisy (Gerbera hybrid). The experiment in a line: Cut flower trials, Gerbera. To be noted: GS at 35 mg/L alone or in the GS+Trc mix. The class given is in vivo. As to the method:
Water uptake was initially better than observed for a commercial product for cut-flower preservation (FIG. 4A).
Cut flower trials on mini hybrids of the African daisy (Gerbera hybrid) and blue larkspur (Delphinium hybrid) were conducted on 3-day old flowers. Flowers were prepared by cutting 3-5 cm of each stem and each placed separately in a measuring flask with 100 mL containing either no additive, Trc mix (35 mg/L for Gerbera and 25 mg/l for Delphinium), GS (35 mg/L for Gerbera and 25 mg/L for Delphinium), Trc mix+GS (combined 70 mg/L for Gerbera and combined 50 mg/L for Delphinium) or commercial additive for flower preservation. Flowers (6-12 per trial) were kept in a room with both natural and fluorescent lighting (16 hours light/day) at 22±1° C. The volume of water was monitored every 24 hours and noted for each flower.
Flower condition was rated from 0 to 5, with 0=dead, 1=flower petals dehydrated, closed and drooping, 2=flower still partially open but dehydrated and drooping, 3=flower starts drooping, petals soft, 4=some petals becoming soft, flower still in good condition and 5=flower is in pristine condition with taught petals and stem/leaves.

The next data set deals with bacteria. The experiment in a line: Sterilization of field-gathered grapevine material, antibacterial efficacy. The data set is classed as in vivo. The note with it: selected cases. As to the method: as §3
The subject of data set [11] is Grapevine tissue culture plants. The experiment in a line: Plant culture assay, growth and development of plantlets. The data set is classed as in vivo. The note with it: 15 mg/L in MS medium. As to the method: as §3, §4
[12] abbreviates: potato dextrose broth (low salt PDB).

Residues, ends and D or L forms follow the SMILES beside them.

Consider `CC(C)C[C@@H]1NC(=O)[C@H](CCCN)NC(=O)[C@H](C(C)C)NC(=O)C2CCCN2C(=O)[C@@H](Cc2ccccc2)NC(=O)[C@H](CC(C)C)NC(=O)[C@H](CCCN)NC(=O)[C@H](C(C)C)NC(=O)C2CCCN2C(=O)[C@@H](Cc2ccccc2)NC1=O` (stereo partly shown) [GS, Cyclo-(VOLfPVOLfP)] (HELM PEPTIDE1{L.[dF].[O=C(C1CCCN1[*:1])[*:2]].V.[Orn].L.[dF].[O=C(C1CCCN1[*:1])[*:2]].V.[Orn]}$PEPTIDE1,PEPTIDE1,1:R1-10:R2$$$V2.0), for which the “MIC + SEM” value with Fusarium solani (Broth, Fusarium solani) is reported as 2.5 ± 0.1; in data set [1] it was 8.6 ± 0.7; with Fusarium oxysporum, 2.6 ± 0.2; with Fusarium verticilliodes, 3.5 ± 0.3; in data set [2], 3-4; in data set [3] it was 3.7 ± 0.3. In addition, the “MIC + SEM” value in [4] was 4.0 ± 0.5; in the data set with Botrytis cinerea (Broth, Botrytis cinerea) it was 2.8 ± 0.3; in [5] it was less than 10; with Escherichia coli HB101 it was 40; in [6] it was 6; with Phomopsis viticola it was less than 10. For the same compound, the “MIC + SEM” value in [7] worked out at 3.6 ± 0.3. In the data set with Fusarium solani (setting [12]), the “MIC against F. solani in PDB (n)” value turned out to be 2.2 ± 0.1. Further, the “MIC against B. cinerea in PDB (n)” value in the data set with Botrytis cinerea (setting [12]) amounted to 1.8 ± 0.3. The “concentration sufficient to eliminate fungal pathogens” value with fungal pathogens [8] is reported as 20 mg/L. The “concentration sufficient to eliminate fungal pathogens in the growth media” value with fungal pathogens [9] is 15 mg/L. Also, in data set [10], the “benefit to flower survival” value was “did not benefit flower survival”. Also, in data set [10], the phytotoxicity result was “may have led to some phytotoxicity”. In addition, in the data set with bacteria, the antibacterial efficacy entry is given as “good antibacterial activity”. Moreover, in data set [11], the “effect on root growth” value is “root growth was visibly affected”. For the same compound, the “effect on plant culture survival and growth” value in [11] (vs control plants) was “enhanced plant culture survival and foliage growth”.

For the origin of these results see patent US20150030566A1, “ANTIMICROBIAL PEPTIDE COMPOSITIONS FOR PLANTS” (Stellenbosch University, priority 2012, published 2015).
